Data taken from patent publication US20080176266A1, “Biomarkers Of Metabolic Responses To Hepatotoxicants And Carcinogens” (priority 2006, published 2008).
Marks after values point to notes of the source that are not given here.

How the values were obtained:
[1] = test system: Sprague Dawley rats; experiment: Liver enzymes ALT and AST in serum; format: in vivo; settings: rat serum, 0, 50, 250 mg/kg, any groups
Procedure: (§1) In detail, a single dose of clofibrate or vehicle was administered by gavage (0, 50 and 250 mg/kg) to groups of 18 male Sprague Dawley rats at 11 wks age. Six rats per dose group were euthanized at 6 and 24 h post-dose. Serum (for metabolomics and alanine aminotransferase (ALT), and aspartate aminotransferase (AST)), liver lobes (for histology), and frozen liver and urine (for metabolomics) were collected. Six rats per dose group were placed in metabolism cages for urine collection at −24-0 h, 0-6 h, 6-24 h and 24-48 h. These rats were removed from metabolism cages at 48 h post-dose, for blood and liver collection. The detailed study design is set forth in Chart 1.

[2] = test system: DNA; settings: short term treatment; Gonzalez et al. (1998); cited from earlier work
[3] = test system: Sprague Dawley rats; experiment: Liver histology; format: in vivo; settings: rat liver
Procedure: as §1, with “In detail, a single dose of clofibrate or vehicle was administered by gavage (0, 50 and 250 mg/kg) to groups of 18 male Sprague Dawley rats at 11 wks age.” left out

[4] = test system: Sprague Dawley rats; experiment: GC-MS metabolomics of liver from rats exposed to clofibrate; format: in vivo; settings: rat liver, 250 mg/kg/d
Procedure: In one embodiment, the hepatotoxicant is clofibrate. Clofibrate or vehicle is administered orally (0, 50, 250 mg/kg/d) to groups of 6 rats and serum and livers are collected 6 and 24 h after either a single or 14 daily doses. Global biochemical profiles are determined by LC-MS and GC-MS and components highly perturbed by clofibrate exposure are identified by the methods described above. […] Rats (6 per group) were dosed by gavage with vehicle, 50 or 250 mg/kg clofibrate per day for 1 (single dose) or 14 days (repeated dose). These groups are referred to as “day 1” and ‘day 14 (d 1 and d14).” Liver and serum were collected at 6 and 24 h post-dosing in the day 1 and day 14. In detail, a single dose of clofibrate or vehicle was administered by gavage (0, 50 and 250 mg/kg) to groups of 18 male Sprague Dawley rats at 11 wks age. Six rats per dose group were euthanized at 6 and 24 h post-dose. Serum (for metabolomics and alanine aminotransferase (ALT), and aspartate aminotransferase (AST)), liver lobes (for histology), and frozen liver and urine (for metabolomics) were collected. Six rats per dose group were placed in metabolism cages for urine collection at −24-0 h, 0-6 h, 6-24 h and 24-48 h. These rats were removed from metabolism cages at 48 h post-dose, for blood and liver collection. The detailed study design is set forth in Chart 1. For GC-MS, liver was extracted with CHCl3:MeOH mixtures. Organic residue was derivitized with BSTFA and dried aqueous residues were derivitized with methoxyamine HCl/BSTFA. Samples were injected with 10:1 split into an Agilent 6890 gas chromatograph. A Leco Pegasus III TOFMS was used. Ions were generated at 70 eV with 3.2 mA ionization current; 25 spectra/s were recorded for 60-800 m/z. Acceleration voltage activated after 180 s solvent delay. Detector voltage: 1750 V. Data were processed with Leco ChromaTOF software. Automatic peak detection and mass spectrum deconvolution were performed using 1.33 s peak width. Peaks with S/N less than 20 were rejected. Component identification was accomplished with the NIST 98' MS library and, in some cases, verified with standards. Components with similarity greater than 600 were used for analysis.

[5] = test system: Sprague Dawley rats; experiment: Liver-to-body weight ratio (LBR), F-tests; format: in vivo, rat; settings: Day 14 animals, with time and with dose, not the interaction of dose-time
Description: Liver hypertrophy is a well-known clinical end-point of chronic clofibrate exposure, however, the biomarkers of this pathology are unknown. Using the measurements of the liver weight and the body weight of the animals, we calculated the liver-to-body weight ratio (LBR). […] Second, we discovered the components that could classify the LBR in the liver and in the serum. This was accomplished out using a step wise regression method with the LBR as the response variable and all of the components as independent variables. After an iterative selection procedure, 29 of the best components from the serum and the liver were used to build the reduced model given below: […]

[6] = test system: rats; settings: cited from earlier work

CCOC(=O)C(C)(C)Oc1ccc(Cl)cc1 [clofibrate, ethyl-p-chloro-phenoxyisobutyrate]
ALT [1]: not elevated | AST [1]: not elevated | DNA adducts [2]: no DNA adducts have been observed | Histology: hepatocellular cytologic alterations ([3]; after 14 doses at 250 mg/kg/day, all time points): hepatocellular cytologic alterations (indicating loss of glycogen and eosinophilic granular cytoplasm) were noted | Histology: hepatocellular mitotic figures ([3]; after a single dose, 50 to 250 mg/kg): dose related increase and severity of hepatocellular mitotic figures | Hepatic 1-Mono linoleoylglycerol (fold change) ([4]; Day 1, 6 H): 1.11*** fold change | Hepatic 1-Mono oleoylglycerol (fold change) ([4]; Day 1, 6 H): 0.98* fold change | Hepatic 1-Mono palmitoylglycerol (fold change) ([4]; Day 1, 6 H): 0.91** fold change | Hepatic 2-Mono oleoylglycerol (fold change) ([4]; Day 1, 6 H): 1.12*** fold change | Hepatic Cholesterol (fold change) ([4]; Day 1, 6 H): 1.34*** fold change | Hepatic Glucose (aq) (fold change) ([4]; Day 1, 6 H): 0.29* fold change | Hepatic Glycine (fold change) ([4]; Day 1, 6 H): 2.69** fold change | Hepatic Lactic acid (fold change) ([4]; Day 1, 6 H): 1.56** fold change | Hepatic Linoleic acid (fold change) ([4]; Day 1, 6 H): 0.97* fold change | Hepatic Palmitate (fold change) ([4]; Day 1, 6 H): 0.95*** fold change | Hepatic Stearate (fold change) ([4]; Day 1, 6 H): 1.07* fold change | Hepatic 1-Mono stearoylglycerol (fold change) ([4]; Day 1, 24 H): 17.14** fold change | Hepatic Glycerol 1(3)-phosphate (fold change) ([4]; Day 1, 24 H): 2.56* fold change | Hepatic Glycine (fold change) ([4]; Day 1, 24 H): 3.42* fold change | Hepatic L-Aspartic acid (fold change) ([4]; Day 1, 24 H): 27.88*** fold change | Hepatic Lactic acid (fold change) ([4]; Day 1, 24 H): 4.41* fold change | Hepatic Succinic acid (Butanedioic acid) (fold change) ([4]; Day 1, 24 H): 17.05** fold change | Hepatic l-Alanine (fold change) ([4]; Day 1, 24 H): 4.74* fold change | Hepatic 1-Mono palmitoylglycerol (fold change) ([4]; Day 14, 6 H): 0.04** fold change | Hepatic 1-Mono stearoylglycerol (fold change) ([4]; Day 14, 6 H): 0.22** fold change | Hepatic 2-Mono stearoylglycerol (fold change) ([4]; Day 14, 6 H): 0.41* fold change | Hepatic Arachidonic acid (fold change) ([4]; Day 14, 6 H): 0.22*** fold change | Hepatic Cholesterol (fold change) ([4]; Day 14, 6 H): 1.87** fold change | Hepatic Malate (fold change) ([4]; Day 14, 6 H): 0.1** fold change | Hepatic Palmitate (fold change) ([4]; Day 14, 6 H): 0.72** fold change | Hepatic β-Sitosterol (fold change) ([4]; Day 14, 6 H): 0.37** fold change | Hepatic Cholesterol (fold change) ([4]; Day 14, 24 H): 0.69** fold change | Hepatic Docosahexaenoic acid (fold change) ([4]; Day 14, 24 H): 0.58* fold change | Hepatic Glucose (aq) (fold change) ([4]; Day 14, 24 H): 0.39** fold change | Hepatic Malate (fold change) ([4]; Day 14, 24 H): 0.33** fold change | Hepatic β-Sitosterol (fold change) ([4]; Day 14, 24 H): 0.46* fold change | Clofibrate metabolite Propanoic acid, 2-(4-chlorophenoxy)-2-methyl- detected in liver ([4]; GC-MS): (not present in control) | Liver-to-body weight ratio (LBR) [5]: significantly increased | Microscopic changes to liver ([6]; 24 h after a single exposure): no microscopic changes | Liver histopathology ([6]; after 2 weeks): induced hypertrophy
